{
  "source": "ChEMBL document CHEMBL1221262",
  "about": "“Synthesis and antituberculosis activity of new fatty acid amides” (2010)",
  "key": {"[1]": {"system": "Mycobacterium tuberculosis", "assay": "Antitubercular activity against rifampicin-resistant Mycobacterium tuberculosis H37Rv ATCC 35338 after 7 days by resazurin microtiter assay", "type": "functional", "conditions": "H37Rv ATCC 35338, 168 h"}, "[2]": {"system": "Mycobacterium tuberculosis", "assay": "Antitubercular activity against isoniazid-resistant Mycobacterium tuberculosis H37Rv ATCC 35822 after 7 days by resazurin microtiter assay", "type": "functional", "conditions": "H37Rv ATCC 35822, 168 h"}},
  "data": [
    {"smiles": "CCCCCCCC/C=C\\CCCCCCCC(=O)N1CCCCC1", "values": [
      {"measurement": "MIC", "setting": "[1]", "value": 25, "unit": "µg/mL"},
      {"measurement": "MIC", "setting": "[2]", "value": 12.5, "unit": "µg/mL"}
    ]},
    {"smiles": "CCCCCCCC/C=C\\CCCCCCCC(=O)N1CCOCC1", "values": [
      {"measurement": "MIC", "setting": "[1]", "value": 12.5, "unit": "µg/mL"},
      {"measurement": "MIC", "setting": "[2]", "value": 6.25, "unit": "µg/mL"}
    ]},
    {"smiles": "CCCCCC[C@@H](O)C/C=C\\CCCCCCCC(=O)NCc1ccccc1", "values": [
      {"measurement": "MIC", "setting": "[1]", "value": 12.5, "unit": "µg/mL"},
      {"measurement": "MIC", "setting": "[2]", "value": 12.5, "unit": "µg/mL"}
    ]},
    {"smiles": "CCCCCC[C@@H](O)C/C=C\\CCCCCCCC(=O)N[C@H](C)c1ccccc1", "values": [
      {"measurement": "MIC", "setting": "[1]", "value": 25, "unit": "µg/mL"},
      {"measurement": "MIC", "setting": "[2]", "value": 12.5, "unit": "µg/mL"}
    ]},
    {"smiles": "CCCCCC[C@@H](O)C/C=C\\CCCCCCCC(=O)N[C@@H](C)c1ccccc1", "values": [
      {"measurement": "MIC", "setting": "[1]", "value": 50, "unit": "µg/mL"},
      {"measurement": "MIC", "setting": "[2]", "value": 100, "unit": "µg/mL"}
    ]},
    {"smiles": "CCCCCC[C@@H](O)C/C=C\\CCCCCCCC(=O)N1CCCC1", "values": [
      {"measurement": "MIC", "setting": "[1]", "value": 6.25, "unit": "µg/mL"},
      {"measurement": "MIC", "setting": "[2]", "value": 6.25, "unit": "µg/mL"}
    ]},
    {"smiles": "CCCCCC[C@@H](O)C/C=C\\CCCCCCCC(=O)N1CCOCC1", "values": [
      {"measurement": "MIC", "setting": "[1]", "value": 12.5, "unit": "µg/mL"},
      {"measurement": "MIC", "setting": "[2]", "value": 6.25, "unit": "µg/mL"}
    ]},
    {"smiles": "CCCCC/C=C\\C/C=C\\CCCCCCCC(=O)N[C@H](C)c1ccccc1", "values": [
      {"measurement": "MIC", "setting": "[1]", "value": 25, "unit": "µg/mL"},
      {"measurement": "MIC", "setting": "[2]", "value": 12.5, "unit": "µg/mL"}
    ]},
    {"smiles": "CCCCC/C=C\\C/C=C\\CCCCCCCC(=O)N[C@@H](C)c1ccccc1", "values": [
      {"measurement": "MIC", "setting": "[1]", "value": 12.5, "unit": "µg/mL"},
      {"measurement": "MIC", "setting": "[2]", "value": 6.25, "unit": "µg/mL"}
    ]},
    {"smiles": "CCCCC/C=C\\C/C=C\\CCCCCCCC(=O)N1CCCC1", "values": [
      {"measurement": "MIC", "setting": "[1]", "value": 12.5, "unit": "µg/mL"},
      {"measurement": "MIC", "setting": "[2]", "value": 12.5, "unit": "µg/mL"}
    ]},
    {"smiles": "CCCCCCCCCCCCCCCC(=O)N[C@H](C)c1ccccc1", "values": [
      {"measurement": "MIC", "setting": "[1]", "value": "> 100", "unit": "µg/mL"},
      {"measurement": "MIC", "setting": "[2]", "value": "> 100", "unit": "µg/mL"}
    ]},
    {"smiles": "CCCCCCCCCCCCCCCC(=O)N[C@@H](C)c1ccccc1", "values": [
      {"measurement": "MIC", "setting": "[1]", "value": "> 100", "unit": "µg/mL"},
      {"measurement": "MIC", "setting": "[2]", "value": "> 100", "unit": "µg/mL"}
    ]},
    {"smiles": "CCCCCCCCCCCCCCCC(=O)N1CCCC1", "values": [
      {"measurement": "MIC", "setting": "[1]", "value": 25, "unit": "µg/mL"},
      {"measurement": "MIC", "setting": "[2]", "value": 25, "unit": "µg/mL"}
    ]},
    {"smiles": "CCCCCCCCCCCCCCCC(=O)N1CCCCC1", "values": [
      {"measurement": "MIC", "setting": "[1]", "value": 25, "unit": "µg/mL"},
      {"measurement": "MIC", "setting": "[2]", "value": 25, "unit": "µg/mL"}
    ]},
    {"smiles": "CCCCCCCCCCCCCCCCCC(=O)N[C@H](C)c1ccccc1", "values": [
      {"measurement": "MIC", "setting": "[1]", "value": "> 100", "unit": "µg/mL"},
      {"measurement": "MIC", "setting": "[2]", "value": "> 100", "unit": "µg/mL"}
    ]},
    {"smiles": "CCCCCCCCCCCCCCCCCC(=O)N[C@@H](C)c1ccccc1", "values": [
      {"measurement": "MIC", "setting": "[1]", "value": "> 100", "unit": "µg/mL"},
      {"measurement": "MIC", "setting": "[2]", "value": "> 100", "unit": "µg/mL"}
    ]},
    {"smiles": "CCCCCCCC/C=C\\CCCCCCCC(=O)NCc1ccccc1", "values": [
      {"measurement": "MIC", "setting": "[2]", "value": 100, "unit": "µg/mL"}
    ]},
    {"smiles": "CCCCCCCC/C=C\\CCCCCCCC(=O)N[C@H](C)c1ccccc1", "values": [
      {"measurement": "MIC", "setting": "[1]", "value": 50, "unit": "µg/mL"},
      {"measurement": "MIC", "setting": "[2]", "value": 12.5, "unit": "µg/mL"}
    ]},
    {"smiles": "CCCCCCCC/C=C\\CCCCCCCC(=O)NC(C)c1ccccc1", "note": "(configuration not stated)", "values": [
      {"measurement": "MIC", "setting": "[1]", "value": 100, "unit": "µg/mL"}
    ]},
    {"smiles": "CCCCCCCC/C=C\\CCCCCCCC(=O)N1CCCC1", "values": [
      {"measurement": "MIC", "setting": "[1]", "value": 12.5, "unit": "µg/mL"},
      {"measurement": "MIC", "setting": "[2]", "value": 6.25, "unit": "µg/mL"}
    ]},
    {"smiles": "CCCCCCCC/C=C\\CCCCCCCC(=O)NCCO", "note": "[OLEOYLETHANOLAMIDE]", "values": [
      {"measurement": "MIC", "setting": "[1]", "value": 25, "unit": "µg/mL"},
      {"measurement": "MIC", "setting": "[2]", "value": 12.5, "unit": "µg/mL"}
    ]},
    {"smiles": "CCCCCCCCCCCCCCCC(=O)NCCO", "note": "[PALMIDROL]", "values": [
      {"measurement": "MIC", "setting": "[1]", "value": "> 100", "unit": "µg/mL"},
      {"measurement": "MIC", "setting": "[2]", "value": "> 100", "unit": "µg/mL"}
    ]}
  ]
}
